Source: patent publication US10144715B2, “Piperazine derivatives as liver X receptor modulators” (priority 2014, dated 2018)
Read-outs that look alike come from different tables or passages of the source.

Key:
[1] = target: T1, Gal4 DNA binding domain fused to the LBD of LXRα in HEK293 cells (Homo sapiens (Human), UniProt Q13133); assay: LXR luciferase transcriptional reporter gene assay, agonist mode, LXRα; type: cell-based; settings: for EC50: read-out: Cell LXRα EC50
LXR α LBD protein [2] = target: T2, LXR α LBD protein (Homo sapiens (Human), UniProt Q13133); settings: antagonist mode, 250 nM T0901317, coactivator recruitment TR-FRET; for IC50: read-out: FRET LXRα IC50
Procedure: (§1) This assay is based on the ability of the LXR-LBDs (LXRα and LXRβ) to recruit and interact with a co-activator peptide.
(§2) Two μL of the DMSO solutions were transferred to the plate and 38 μL of 10 nM LXRα-LBD or LXRβ-LBD (2×) were added immediately to the wells. The plate was shaken for 5 min at rt on an orbital micro shaker (DPC MicroMix® 5), after which 40 μL of 200 nM fluorescein-SRC2-3 peptide and 20 nM Terbium-anti-GST-antibody (Cat# PV3550, Life Technologies, Grand Island, N.Y.) solution (4×) were added to all. The plate was sealed and shaken for 2 min at rt, and incubated at rt for 2 h without agitation. […] The delay and window times were set at 100 and 200 microseconds, respectively. […] The percent control vs. compound concentration data were fit into a four-parameter model, and EC50 values were calculated from the fit as the concentrations corresponding to the inflection points on the concentration-response curves.

LXR β LBD protein [3] = target: T3, LXR β LBD protein (Homo sapiens (Human), UniProt P55055); assay: biochemical; type: biochemical; settings: for EC50: read-out: FRET LXRβ EC50
Target sequence in this assay (P55055 222-460): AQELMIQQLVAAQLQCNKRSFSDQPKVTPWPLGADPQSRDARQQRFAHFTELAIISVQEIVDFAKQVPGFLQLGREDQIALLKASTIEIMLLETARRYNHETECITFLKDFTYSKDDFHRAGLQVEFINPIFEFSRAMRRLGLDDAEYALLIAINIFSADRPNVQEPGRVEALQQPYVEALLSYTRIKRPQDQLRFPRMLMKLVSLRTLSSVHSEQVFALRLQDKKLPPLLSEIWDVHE

LXR α LBD protein [4] = target: T2, LXR α LBD protein; assay: Human LXRα coactivator recruitment FRET assay, agonist mode; type: biochemical
How it was run: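 LXRα- or LXRβ-LBD at 10 nM (2×) mixed with compound in DMSO, then fluorescein-SRC2-3 peptide 200 nM and Tb-anti-GST antibody 20 nM (4×) added; 2 h at rt. Time-resolved FRET read, 100 µs delay, 200 µs window; EC50 from four-parameter fit of percent control.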

LXR β LBD protein [5] = target: T3, LXR β LBD protein; settings: read-out: FRET LXRβ IC50
Target sequence in this assay (P55055 222-460): as above
Procedure: as §1, §2

[6] = target: T4, Gal4 DNA binding domain fused to the LBD of LXRβ in HEK293 cells (Homo sapiens (Human), UniProt P55055); assay: cell-based
LXR β LBD protein [7] = target: T3, LXR β LBD protein; assay: biochemical; type: binding
Target sequence in this assay (P55055 222-460 limits assumed): as the sequence (P55055 222-460) above

LXR α LBD protein [8] = target: T2, LXR α LBD protein; assay: LXR α radioligand binding assay (SPA, competition with [3H]TO901317); settings: read-out: LXRα Binding Ki
LXR β LBD protein [9] = target: T3, LXR β LBD protein; assay: biochemical
Target sequence in this assay (P55055 222-460): as above
Procedure: as §1, §2

[10] = target: T1, Gal4 DNA binding domain fused to the LBD of LXRα in HEK293 cells; assay: LXR luciferase transcriptional reporter gene assay, antagonist mode (200 nM T0901317), LXRα; type: cell-based; settings: read-out: Cell LXRα IC50
[11] = target: T4, Gal4 DNA binding domain fused to the LBD of LXRβ in HEK293 cells; assay: cell-based; type: cell-based; settings: antagonist mode, 200 nM T0901317, HEK293 reporter gene assay
LXRα-LBD or LXRβ-LBD = assay: Coactivator recruitment FRET assay, antagonist mode: agonist control signal (isoform not distinguished); type: biochemical, human; settings: 250 nM T0901317, high TR-FRET signal in antagonist mode
Procedure: When this assay was carried out in “antagonist” mode, 250 nM T0901317 (full LXR agonist) was added to induce nearly maximal SRC2-3 recruitment.

[12] = Biological Test Example 3, agonist mode

T4 sequence (P55055 222-460 limits assumed): as the sequence (P55055 222-460) above
T2 sequence (Q13133 209-447): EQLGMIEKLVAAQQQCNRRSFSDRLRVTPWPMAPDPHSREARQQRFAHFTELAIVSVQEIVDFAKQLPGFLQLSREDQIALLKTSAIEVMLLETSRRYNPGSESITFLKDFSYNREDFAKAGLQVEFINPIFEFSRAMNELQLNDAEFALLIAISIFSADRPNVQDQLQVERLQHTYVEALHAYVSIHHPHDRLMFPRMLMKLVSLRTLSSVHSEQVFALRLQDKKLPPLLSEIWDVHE
T1 sequence (Q13133 209-447): as above

Compound | EC50 ([1]; agonist mode) [µM] | IC50 (LXR α LBD protein [2]) [µM] | EC50 (LXR α LBD protein [4]; agonist mode) [µM] | FRET LXRα efficacy (LXR α LBD protein [4]; agonist mode) [%] | Cell LXRα efficacy [1] | EC50 [1] [µM] | also measured
CS(=O)(=O)c1cccc(N2CCN(Cc3ccc(C(F)(F)F)cc3)[C@H](c3ccccc3)C2)c1 (single isomer, unassigned) [46-14] | > 20 | > 50 | 14.2 | 37 |  |  | FRET LXRβ efficacy (LXR β LBD protein [3]): 2742 (49) %; EC50 (LXR β LBD protein [3]): 2.74 µM; IC50 (LXR β LBD protein [5]): > 50 µM; EC50 [6]: > 20 µM
CC(C)[C@H]1CN(c2cccc(S(C)(=O)=O)c2)CCN1C(=O)OC(C)(C)C [2-2, tert-butyl (S)-2-isopropyl-4-(3-(methylsulfonyl)phenyl)piperazine-1-carboxylate] | > 20 |  | 23.2 | 82 |  |  | Ki (LXR β LBD protein [7]): 1.93 µM; Ki (LXR α LBD protein [8]): > 3.33 µM; IC50 (LXR β LBD protein [9]): > 50 µM; EC50 [6]: > 20 µM
CS(=O)(=O)c1ccc(F)c(N2CCN(Cc3ccc(C(F)(F)F)nc3)C(c3ccccc3)C2)c1 (centres unmarked) [46-50, 4-(2-fluoro-5-(methylsulfonyl)phenyl)-2-phenyl-1-((6-(trifluoromethyl)pyridin-3-yl)methyl)piperazine] |  |  |  |  |  |  | FRET LXRα efficacy (LXR α LBD protein [2]): 102%
CS(=O)(=O)c1cccc(N2CCN(Cc3ccc(C(F)(F)F)nc3)C(c3cccc(Cl)c3)C2)c1 (centres unmarked) [46-55, 2-(3-chlorophenyl)-4-(3-(methylsulfonyl)phenyl)-1-((6-(trifluoromethyl)pyridin-3-yl)methyl)piperazine] | 2.77 | > 50 | 6.54 | 25 | 2773 (7) % |  | 
Cc1cccc(C2CN(c3cccc(S(C)(=O)=O)c3)CCN2Cc2ccc(C(F)(F)F)nc2)c1 (centres unmarked) [46-62, 4-(3-(methylsulfonyl)phenyl)-2-(m-tolyl)-1-((6-(trifluoromethyl)pyridin-3-yl)methyl)piperazine] |  | > 50 | 7.77 | 32 |  | > 20 | 
CS(=O)(=O)c1cc(N2CCN(C[C@H]3CC[C@@H](C(F)(F)F)CC3)[C@@H](c3ccc(F)cc3)C2)ccc1F [48-48, (S)-4-(4-fluoro-3-(methylsulfonyl)phenyl)-2-(4-fluorophenyl)-1-(((1s,4R)-4-(trifluoromethyl)cyclohexyl)methyl)piperazine] |  |  |  |  | 460 (53) % | 0.46 | IC50 [10]: > 10 µM; Ki (LXR β LBD protein [7]; Biological Test Example 1, read-out: LXRβ Binding Ki): 0.023 µM; Ki (LXR α LBD protein [8]): 0.156 µM; Cell LXRβ efficacy [11]: 52%; IC50 ([11]; read-out: Cell LXRβ IC50): 2.69 µM; FRET LXRβ efficacy (LXR β LBD protein [3]; [12]): 40%; EC50 (LXR β LBD protein [3]; [12]): 0.142 µM; EC50 (LXR α LBD protein [4]; [12]): 1.32 µM; FRET LXRα efficacy (LXR α LBD protein [4]; [12]): 42%; Cell LXRβ efficacy ([6]; Biological Test Example 2, agonist mode): 31%; EC50 ([6]; Biological Test Example 2, agonist mode, read-out: Cell LXRβ EC50): 0.112 µM
CS(=O)(=O)c1cc(N2CCN(Cc3ccc(C(F)(F)F)nc3)C(c3ccccc3)C2)ccc1CO (centres unmarked) [Cpd No 47-1, (2-(methylsulfonyl)-4-(3-phenyl-4-((6-(trifluoromethyl)pyridin-3-yl)methyl)piperazin-1-yl)phenyl)methanol] | 8.4 | > 50 | 2.02 | 76 | 8405 (46) % |  | 
O=S(=O)(c1ccccc1)N(CC(F)(F)F)c1ccc(C(O)(C(F)(F)F)C(F)(F)F)cc1 [TO901317] |  |  |  |  |  |  | SRC2-3 recruitment (LXRα-LBD or LXRβ-LBD): ~75%
tert-butyl 4-(3-(methylsulfonyl)phenyl)-2-phenylpiperazine-1-carboxylate [1-5] |  | > 50 | 4.1 | 63 | 4297 (17) % | 4.3 | FRET LXRβ efficacy (LXR β LBD protein [3]; agonist mode): 78%; EC50 (LXR β LBD protein [3]; agonist mode): 0.227 µM; IC50 (LXR β LBD protein [5]; antagonist mode, 250 nM T0901317, coactivator recruitment TR-FRET): > 50 µM; Cell LXRβ efficacy ([6]; agonist mode): 21%; EC50 ([6]; agonist mode, read-out: Cell LXRβ EC50): 0.898 µM
tert-butyl (S)-2-benzyl-4-(3-(methylsulfonyl)phenyl)piperazine-1-carboxylate [1-7] |  | > 50 | 11.9 | 33 | 2550 (8) % | 2.55 | 
